# Measured values: PubChem BioAssay (NCI)
#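 Growth conditions: 96-well plates. Treatment: test compound, 48 hours, 5 concentrations. Analysis: linear interpolation between bracketing concentrations; unreached endpoints set to highest concentration. TGI: total growth inhibition.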
# Legend:
# Assay in all cases: inhibition of tumour cell growth, NCI panel, 48 h
# [1] = system: KM12 colon
# [2] = system: TK-10 renal
# [3] = system: SF-295 CNS
# [4] = system: SF-539 CNS
# [5] = system: EKVX NSCLC
# [6] = system: NCI-H522 lung
# [7] = system: SR leukemia
# [8] = system: K-562 leukemia
# [9] = system: HOP-18 NSCLC
# [10] = system: SK-OV-3 ovarian
# [11] = system: HT29 colon
# [12] = system: UO-31 renal
# [13] = system: SK-MEL-5 melanoma
# [14] = system: LXFL 529 NSCLC
# [15] = system: MALME-3M melanoma
# [16] = system: U251 CNS
# [17] = system: 786-0 renal
# [18] = system: NCI-H460 lung
# [19] = system: SK-MEL-28 melanoma
# [20] = system: DLD-1 colon
# [21] = system: HOP-62 NSCLC
# [22] = system: SW-620 colon
# [23] = system: HCT-15 colon
# [24] = system: RXF 393 renal
# [25] = system: A498 renal
# [26] = system: M19-MEL melanoma
# [27] = system: COLO 205 colon
# [28] = system: HCT-116 colon
# [29] = system: HL-60(TB) leukemia
# [30] = system: UACC-62 melanoma
# [31] = system: SK-MEL-2 melanoma
# [32] = system: DMS 273 small cell lung
# [33] = system: SN12C renal
# [34] = system: RPMI-8226 leukemia
# [35] = system: OVCAR-4 ovarian
# [36] = system: SNB-75 CNS
# [37] = system: M14 melanoma
# [38] = system: ACHN renal
# [39] = system: OVCAR-3 ovarian
# [40] = system: SF-268 CNS
# [41] = system: A549 NSCLC
# [42] = system: NCI-H23 lung
# [43] = system: UACC-257 melanoma
# [44] = system: OVCAR-5 ovarian
# [45] = system: OVCAR-8 ovarian
# [46] = system: MOLT-4 leukemia
# [47] = system: IGROV1 ovarian
# [48] = system: SNB-19 CNS
# [49] = system: SNB-78 CNS
# [50] = system: DMS 114 small cell lung
# [51] = system: CCRF-CEM leukemia
# [52] = system: HCC-2998 colon
# [53] = system: KM20L2 colon
# [54] = system: LOX IMVI melanoma
# [55] = system: NCI-H226 lung
# [56] = system: CAKI-1 renal
# [57] = system: XF 498 CNS
# [58] = system: NCI/ADR-RES ovarian
# [59] = system: HS 578T breast
# [60] = system: PC-3 prostate
# [61] = system: MDA-N
# [62] = system: DU-145 prostate
# [63] = system: MCF7 breast
# [64] = system: T-47D breast
# [65] = system: BT-549 breast
# [66] = system: MDA-MB-231 breast
# [67] = system: HOP-92 NSCLC
compound,measurement,setting,value
CN(C)CCC(/C=C/c1ccccc1)=N\Nc1ccc(Cl)cc1Cl,TGI,[1],29.7 µM
same,TGI,[2],27.2 µM
same,TGI,[3],30.2 µM
same,TGI,[4],29 µM
same,TGI,[5],31.1 µM
same,TGI,[6],30.6 µM
same,TGI,[7],23.9 µM
same,TGI,[8],28.7 µM
same,TGI,[9],21.9 µM
same,TGI,[10],22.8 µM
same,TGI,[11],27.2 µM
same,TGI,[12],6.5 µM
same,TGI,[13],26.2 µM
same,TGI,[14],22.8 µM
same,TGI,[15],41.2 µM
same,TGI,[16],24.7 µM
same,TGI,[17],26.1 µM
same,TGI,[18],28.1 µM
same,TGI,[19],27.3 µM
same,TGI,[20],27.9 µM
same,TGI,[21],27.9 µM
same,TGI,[22],27.9 µM
same,TGI,[23],24.2 µM
same,TGI,[24],21 µM
same,TGI,[25],30.5 µM
same,TGI,[26],29 µM
same,TGI,[27],28.1 µM
same,TGI,[28],28.8 µM
same,TGI,[29],16.7 µM
same,TGI,[30],21.4 µM
same,TGI,[31],26.7 µM
same,TGI,[32],25.9 µM
same,TGI,[33],23.2 µM
same,TGI,[34],30.1 µM
same,TGI,[35],29.7 µM
same,TGI,[36],18.8 µM
same,TGI,[37],26.6 µM
same,TGI,[38],25.5 µM
same,TGI,[39],27.5 µM
same,TGI,[40],28.2 µM
same,TGI,[41],30.5 µM
same,TGI,[42],31.4 µM
same,TGI,[43],27 µM
same,TGI,[44],28.8 µM
same,TGI,[45],30.3 µM
same,TGI,[46],25.9 µM
same,TGI,[47],20.9 µM
same,TGI,[48],29.4 µM
same,TGI,[49],26.9 µM
same,TGI,[50],29.5 µM
same,TGI,[51],25.8 µM
Cn1c2ccccc2n2c(=O)c3c(c(C#N)c12)CCCC3,TGI,[1],> 100 µM
same,TGI,[52],> 100 µM
same,TGI,[2],> 100 µM
same,TGI,[53],> 100 µM
same,TGI,[3],> 100 µM
same,TGI,[4],> 100 µM
same,TGI,[5],> 100 µM
same,TGI,[7],> 100 µM
same,TGI,[8],> 100 µM
same,TGI,[10],> 100 µM
same,TGI,[11],> 100 µM
same,TGI,[12],> 100 µM
same,TGI,[13],> 100 µM
same,TGI,[15],> 100 µM
same,TGI,[16],> 100 µM
same,TGI,[17],> 100 µM
same,TGI,[54],> 100 µM
same,TGI,[18],> 100 µM
same,TGI,[19],> 100 µM
same,TGI,[20],> 100 µM
same,TGI,[21],> 100 µM
same,TGI,[22],> 100 µM
same,TGI,[23],> 100 µM
same,TGI,[24],> 100 µM
same,TGI,[25],> 100 µM
same,TGI,[26],> 100 µM
same,TGI,[27],> 100 µM
same,TGI,[28],> 100 µM
same,TGI,[29],> 100 µM
same,TGI,[31],> 100 µM
same,TGI,[32],> 100 µM
same,TGI,[33],> 100 µM
same,TGI,[34],> 100 µM
same,TGI,[35],> 100 µM
same,TGI,[36],> 100 µM
same,TGI,[37],> 100 µM
same,TGI,[38],> 100 µM
same,TGI,[39],> 100 µM
same,TGI,[40],> 100 µM
same,TGI,[55],> 100 µM
same,TGI,[41],> 100 µM
same,TGI,[42],> 100 µM
same,TGI,[43],> 100 µM
same,TGI,[44],> 100 µM
same,TGI,[45],> 100 µM
same,TGI,[46],> 100 µM
same,TGI,[56],> 100 µM
same,TGI,[47],> 100 µM
same,TGI,[48],> 100 µM
same,TGI,[49],> 100 µM
same,TGI,[50],> 100 µM
same,TGI,[57],> 100 µM
C/C=C(\C)c1cc(O)c(C)c2c1Oc1cc(O)c(Cl)c(C)c1C(=O)O2,TGI,[1],47.6 µM
same,TGI,[52],26.5 µM
same,TGI,[2],30.4 µM
same,TGI,[53],35.2 µM
same,TGI,[3],32.4 µM
same,TGI,[4],48.2 µM
same,TGI,[5],61.2 µM
same,TGI,[6],51.3 µM
same,TGI,[7],49.5 µM
same,TGI,[11],34.7 µM
same,TGI,[12],27.2 µM
same,TGI,[13],26.9 µM
same,TGI,[14],60 µM
same,TGI,[16],39.6 µM
same,TGI,[17],49.2 µM
same,TGI,[54],31.6 µM
same,TGI,[18],39.7 µM
same,TGI,[19],72.2 µM
same,TGI,[20],33.9 µM
same,TGI,[21],51.1 µM
same,TGI,[22],37.4 µM
same,TGI,[24],34.1 µM
same,TGI,[26],81.8 µM
same,TGI,[27],49.3 µM
same,TGI,[29],67.3 µM
same,TGI,[31],41.8 µM
same,TGI,[32],67.9 µM
same,TGI,[33],30.9 µM
same,TGI,[35],34.5 µM
same,TGI,[36],53.3 µM
same,TGI,[37],43.4 µM
same,TGI,[38],54.6 µM
same,TGI,[40],66 µM
same,TGI,[55],33.6 µM
same,TGI,[41],74 µM
same,TGI,[42],38.6 µM
same,TGI,[43],44.2 µM
same,TGI,[44],30.2 µM
same,TGI,[45],45.9 µM
same,TGI,[56],> 100 µM
same,TGI,[48],31.6 µM
same,TGI,[49],82.6 µM
same,TGI,[50],74.9 µM
Cc1cc(N(CCC#N)CCC#N)ccc1/C=C1N=C(/C=C\c2ccccc2)N(c2ccc(Cl)cc2)C\1=O,TGI,[1],> 100 µM
same,TGI,[52],> 100 µM
same,TGI,[58],> 100 µM
same,TGI,[2],> 100 µM
same,TGI,[53],> 31.9 µM
same,TGI,[3],> 100 µM
same,TGI,[4],> 100 µM
same,TGI,[5],> 100 µM
same,TGI,[59],> 100 µM
same,TGI,[6],> 100 µM
same,TGI,[7],> 100 µM
same,TGI,[8],> 100 µM
same,TGI,[9],> 100 µM
same,TGI,[10],> 100 µM
same,TGI,[11],> 100 µM
same,TGI,[12],> 53.9 µM
same,TGI,[13],17.5 µM
same,TGI,[15],> 72 µM
same,TGI,[16],> 100 µM
same,TGI,[17],> 100 µM
same,TGI,[54],> 100 µM
same,TGI,[60],> 100 µM
same,TGI,[18],> 100 µM
same,TGI,[61],> 100 µM
same,TGI,[19],> 100 µM
same,TGI,[20],> 100 µM
same,TGI,[62],> 100 µM
same,TGI,[21],> 63.5 µM
same,TGI,[22],> 100 µM
same,TGI,[23],> 100 µM
same,TGI,[24],> 100 µM
same,TGI,[25],> 100 µM
same,TGI,[26],> 82.7 µM
same,TGI,[63],> 100 µM
same,TGI,[27],5.06 µM
same,TGI,[28],> 100 µM
same,TGI,[29],> 100 µM
same,TGI,[64],> 100 µM
same,TGI,[31],> 100 µM
same,TGI,[32],> 100 µM
same,TGI,[33],> 100 µM
same,TGI,[34],> 100 µM
same,TGI,[65],> 100 µM
same,TGI,[35],> 100 µM
same,TGI,[36],> 100 µM
same,TGI,[37],> 48.2 µM
same,TGI,[38],> 100 µM
same,TGI,[39],> 100 µM
same,TGI,[40],> 100 µM
same,TGI,[55],> 100 µM
same,TGI,[41],> 100 µM
same,TGI,[66],> 100 µM
same,TGI,[42],> 100 µM
same,TGI,[43],> 100 µM
same,TGI,[44],> 100 µM
same,TGI,[45],> 100 µM
same,TGI,[46],> 100 µM
same,TGI,[56],> 100 µM
same,TGI,[47],> 100 µM
same,TGI,[48],> 100 µM
same,TGI,[49],> 100 µM
same,TGI,[50],> 100 µM
same,TGI,[51],> 100 µM
same,TGI,[67],> 100 µM
same,TGI,[57],> 100 µM
